For assay [1], the target named is T1, Bradykinin-1 receptor (Homo sapiens (Human), UniProt P46663). Description: Calcium Mobilization Assay. It is filed as cell-based. Conditions: GeneBLAzer Bradykinin (B1)-NFAT-bla CHO-K1 cells; antagonist activity, FLIPR; read-out: Ca mobilization IC50. Here is the method: Calcium Mobilization Assay
GeneBLAzer® Bradykinin (B1)-NFAT-bla CHO-K1 cells (from Invitrogen) stably overexpressing the human bradykinin 1 receptor were cultured in DMEM (high glucose) supplemented with 10% dialysed FBS, 1% NEAA (non essential amino acids) 1% penicillin/streptomycin, 1% G418 and 0.1 mg/ml zeocin.
For the assay cells were grown overnight in 384-well black clear flat bottom polystyrene plates (Costar) at 37° C. at 5% CO2. After washing with DMEM, 20 mM Hepes, 2.5 mM probenecid, 0.1% BSA (DMEM assay buffer) cells were loaded with 4 μM Fluo-4 in the same DMEM assay buffer for 2 hours at 30° C. Excess dye was removed and cells were washed with DMEM assay buffer. 384-well compound plates were prepared with DMEM assay buffer/0.5% DMSO with or without various concentrations of test compounds. Usually compounds were tested for agonist and antagonist activity.
Test compounds were added to the assay plate and agonist activity was monitored as fluorescence for 80 seconds with a FLIPR (488 nm excitation; 510-570 nm emission; Molecular Devices). […] Increases in intracellular calcium are reported as maximum fluorescence after agonist exposure minus basal fluorescence before exposure. Antagonist activity is indicated as inhibitor concentration required for 50% inhibition of specific calcium increases.
Background: Calcium assays in cells follow changes in intracellular calcium, usually with a dye or a luminescent sensor.

In assay [2] the target is T1, Bradykinin-1 receptor. Briefly: Receptor Binding Assay. The conditions noted are these: membranes from CHO-K1 cells overexpressing Bradykinin-1 receptor; 6 nM [3H]Kallidin (Des Arg10, Leu9); read-out: B1R Binding Ki. The protocol: Binding assays were done with membranes from CHO-K1 cells overexpressing Bradykinin-1 receptor.
For binding, Bradykinin-1 receptor antagonist compounds were added in various concentrations in 50 mM Tris pH 7.4, 5 mM MgCl2 together with 6 nM Kallidin (Des Arg^10, Leu^9), [3,4-Prolyl-3,4-^3H(N)] (PerkinElmer, 1.85-4.44 TBq/mmol) to 40 μg membrane protein containing approximately 1 fmol Bradykinin-1 receptor and incubated for 15 min at 27° C. To determine non-specific binding 10 μM Lys-(Des-Arg^9)-Bradykinin (Bachem) was added. Membranes were harvested through GF/B (glass fiber filter; PerkinElmer) plates, equilibrated with 0.5% polyethylenimine, air dried at 50° C. for 2 hr. Radioactivity was determined by counting in a topcounter (NXT Packard). Specific binding was defined as total binding minus nonspecific binding and typically represents about 90-95% of the total binding. Antagonist activity is expressed as Ki: inhibitor concentration required for 50% inhibition of specific binding corrected for the concentration of the radioligand.

Where only a bound is given, the exact number is not on record here.

T1 sequence (P46663 whole entry): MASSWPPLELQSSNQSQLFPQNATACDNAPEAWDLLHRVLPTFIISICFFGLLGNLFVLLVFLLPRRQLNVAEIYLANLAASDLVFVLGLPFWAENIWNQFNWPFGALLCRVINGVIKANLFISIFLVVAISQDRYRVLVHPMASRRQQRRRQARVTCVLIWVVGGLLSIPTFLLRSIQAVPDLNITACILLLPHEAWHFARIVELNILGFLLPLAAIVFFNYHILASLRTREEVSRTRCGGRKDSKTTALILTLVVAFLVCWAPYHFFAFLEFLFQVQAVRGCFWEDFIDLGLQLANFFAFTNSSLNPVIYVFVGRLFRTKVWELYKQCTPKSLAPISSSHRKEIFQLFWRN

Take `C[C@@H](NC(=O)C1(NC(=O)C(F)(F)F)COC1)c1ncc(-c2cc(Cl)cc(F)c2-c2nnn(C)n2)cc1F` [Example 21, 3-(2,2,2-Trifluoro-acetylamino)-oxetane-3-carboxylic acid ((R)-1-{5-[5-chloro-3-fluoro-2-(2-methyl-2H-tetrazol-5-yl)-phenyl]-3-fluoro-pyridin-2-yl}-ethyl)-amide]: on Bradykinin-1 receptor [1], the half-inhibitory concentration (IC50) (in general, the concentration that inhibits the measured activity by half) stood at 1 nM. For the same compound, the inhibitory constant (Ki) (commonly the equilibrium dissociation constant of an inhibitor or competing ligand from its target) on Bradykinin-1 receptor [2] was 4.3 nM.

On to `Cc1nc(-c2c(F)cc(Cl)cc2-c2cnc([C@@H](C)NC(=O)C3(NC(=O)c4snnc4C)COC3)c(F)c2)no1` [Example 16, 4-Methyl-[1,2,3]thiadiazole-5-carboxylic acid [3-((R)-1-{5-[5-chloro-3-fluoro-2-(5-methyl-[1,2,4]oxadiazol-3-yl)-phenyl]-3-fluoro-pyridin-2-yl}-ethylcarbamoyl)-oxetan-3-yl]-amide], for which the half-maximal inhibitory concentration (IC50) at Bradykinin-1 receptor [1] was determined as 0.4 nM. The inhibition constant Ki on Bradykinin-1 receptor [2] was determined as 1.6 nM.

With `C[C@@H](NC(=O)C1(NC(=O)c2cncnc2)COC1)c1ncc(-c2cc(Cl)cc(Cl)c2OCC(F)F)cc1F` [Example 11, Pyrimidine-5-carboxylic acid [3-((R)-1-{5-[3,5-dichloro-2-(2,2-difluoro-ethoxy)-phenyl]-3-fluoro-pyridin-2-yl}-ethylcarbamoyl)-oxetan-3-yl]-amide], the IC50 on Bradykinin-1 receptor [1] turned out to be 0.8 nM. Moreover, the Ki at Bradykinin-1 receptor [2] came out at 2.6 nM.

Consider `COc1ncc(C(=O)NC2(C(=O)N[C@H](C)c3ccc(-c4cc(Cl)cc(F)c4-c4noc(C)n4)cc3F)COC2)cn1` [Example 31, 2-Methoxy-pyrimidine-5-carboxylic acid (3-{(R)-1-[5′-chloro-3,3′-difluoro-2′-(5-methyl-[1,2,4]oxadiazol-3-yl)-biphenyl-4-yl]-ethylcarbamoyl}-oxetan-3-yl)-amide], for which the IC50 on Bradykinin-1 receptor [1] was below 0.032 nM. In addition, the Ki at Bradykinin-1 receptor [2] was 0.6 nM.

Consider `Cc1nc(-c2c(F)cc(Cl)cc2-c2cnc([C@@H](C)NC(=O)C3(NC(=O)c4cn(C)cn4)COC3)c(F)c2)no1` [Example 27, 1-Methyl-1H-imidazole-4-carboxylic acid [3-((R)-1-{5-[5-chloro-3-fluoro-2-(5-methyl-[1,2,4]oxadiazol-3-yl)-phenyl]-3-fluoro-pyridin-2-yl}-ethylcarbamoyl)-oxetan-3-yl]-amide], for which, at Bradykinin-1 receptor [1], the IC50 is 107 nM. The inhibitory constant (Ki) on Bradykinin-1 receptor [2] was 82.6 nM.

As to `COCC(=O)NC1(C(=O)N[C@H](C)c2ncc(-c3cc(Cl)cc(F)c3-c3noc(C)n3)cc2F)COC1` [Example 17, 3-(2-Methoxy-acetylamino)-oxetane-3-carboxylic acid ((R)-1-{5-[5-chloro-3-fluoro-2-(5-methyl-[1,2,4]oxadiazol-3-yl)-phenyl]-3-fluoro-pyridin-2-yl}-ethyl)-amide], the 50% inhibitory concentration (IC50) at Bradykinin-1 receptor [1] was 26.6 nM. On Bradykinin-1 receptor [2], the inhibition constant (Ki) is 25 nM.

In the case of `C[C@@H](NC(=O)C1(NC(=O)C(F)(F)F)COC1)c1ccc(-c2cc(Cl)cc(F)c2-c2nnn(C)n2)cc1F` [Example 22, 3-(2,2,2-Trifluoro-acetylamino)-oxetane-3-carboxylic acid {(R)-1-[5′-chloro-3,3′-difluoro-2′-(2-methyl-2H-tetrazol-5-yl)-biphenyl-4-yl]-ethyl}-amide], the IC50 at Bradykinin-1 receptor [1] worked out at 0.5 nM. Further, on Bradykinin-1 receptor [2], the inhibition constant (Ki) worked out at 1.7 nM.

As to `COC(=O)c1c(Cl)cccc1-c1ccc([C@@H](C)NC(=O)C2(NC(=O)c3cncnc3)COC2)c(F)c1` [Example 7, 3-Chloro-3′-fluoro-4′-[(R)-1-({3-[(pyrimidine-5-carbonyl)-amino]-oxetane-3-carbonyl}-amino)-ethyl]-biphenyl-2-carboxylic acid methyl ester], the 50% inhibitory concentration (IC50) on Bradykinin-1 receptor [1] was 0.1 nM. Besides, the inhibitory constant (Ki) at Bradykinin-1 receptor [2] amounted to 1.6 nM.

Regarding `Cc1nc(-c2c(F)cc(Cl)cc2-c2cnc([C@@H](C)NC(=O)C3(NC(=O)c4cncc(N)c4)COC3)c(F)c2)no1` [Example 28, 5-Amino-N-[3-((R)-1-{5-[5-chloro-3-fluoro-2-(5-methyl-[1,2,4]oxadiazol-3-yl)-phenyl]-3-fluoro-pyridin-2-yl}-ethylcarbamoyl)-oxetan-3-yl]-nicotinamide], the IC50 at Bradykinin-1 receptor [1] was 0.1 nM. Moreover, the Ki on Bradykinin-1 receptor [2] turned out to be 1.4 nM.

For the compound `Cc1nnsc1C(=O)NC1(C(=O)N[C@H](C)c2ncc(-c3cc(Cl)cc(Cl)c3OCC(F)F)cc2F)COC1` [Example 41, 4-Methyl-[1,2,3]thiadiazole-5-carboxylic acid [3-((R)-1-{5-[3,5-dichloro-2-(2,2-difluoro-ethoxy)-phenyl]-3-fluoro-pyridin-2-yl}-ethylcarbamoyl)-oxetan-3-yl]-amide], the IC50 on Bradykinin-1 receptor [1] was found to be 3.6 nM. In addition, on Bradykinin-1 receptor [2], the Ki is 7.1 nM.

On to `COc1cc(C(=O)NC2(C(=O)N[C@H](C)c3ccc(-c4cc(Cl)cc(F)c4-c4nnn(C)n4)cc3F)COC2)on1` [Example 43, 3-Methoxy-isoxazole-5-carboxylic acid (3-{(R)-1-[5′-chloro-3,3′-difluoro-2′-(2-methyl-2H-tetrazol-5-yl)-biphenyl-4-yl]-ethylcarbamoyl}-oxetan-3-yl)-amide], for which, at Bradykinin-1 receptor [1], the concentration for half-maximal inhibition (IC50) is 0.1 nM. Besides, the Ki on Bradykinin-1 receptor [2] amounted to 1.4 nM.

With `Cc1cc(C(=O)NC2(C(=O)N[C@H](C)c3ncc(-c4cc(Cl)cc(F)c4-c4noc(C)n4)cc3F)COC2)on1` [Example 4, 3-Methyl-isoxazole-5-carboxylic acid [3-((R)-1-{5-[5-chloro-3-fluoro-2-(5-methyl-[1,2,4]oxadiazol-3-yl)-phenyl]-3-fluoro-pyridin-2-yl}-ethylcarbamoyl)-oxetan-3-yl]-amide], the IC50 at Bradykinin-1 receptor [1] is 0.2 nM. Moreover, at Bradykinin-1 receptor [2], the inhibitory constant (Ki) stood at 2.5 nM.

With `COC(=O)c1c(Cl)cccc1-c1ccc([C@@H](C)NC(=O)C2(NC(=O)C(F)(F)F)COC2)c(F)c1` [Example 6, 3-Chloro-3′-fluoro-4′-((R)-1-{[3-(2,2,2-trifluoro-acetylamino)-oxetane-3-carbonyl]-amino}-ethyl)-biphenyl-2-carboxylic acid methyl ester], the IC50 on Bradykinin-1 receptor [1] is 2.2 nM. Moreover, on Bradykinin-1 receptor [2], the inhibition constant Ki turned out to be 6.5 nM.

Regarding `Cc1cc(C(=O)NC2(C(=O)N[C@H](C)c3ncc(-c4cc(Cl)cc(F)c4-c4nnn(C)n4)cc3F)COC2)on1` [Example 20, 3-Methyl-isoxazole-5-carboxylic acid [3-((R)-1-{5-[5-chloro-3-fluoro-2-(2-methyl-2H-tetrazol-5-yl)-phenyl]-3-fluoro-pyridin-2-yl}-ethylcarbamoyl)-oxetan-3-yl]-amide], at Bradykinin-1 receptor [1], the half-inhibitory concentration (IC50) came to 0.4 nM. In addition, the inhibition constant (Ki) on Bradykinin-1 receptor [2] was determined as 1.6 nM.

For the compound `Cc1nc(-c2c(F)cc(Cl)cc2-c2cnc([C@@H](C)NC(=O)C3(NC(=O)c4ccno4)COC3)c(F)c2)no1` [Example 3, Isoxazole-5-carboxylic acid [3-((R)-1-{5-[5-chloro-3-fluoro-2-(5-methyl-[1,2,4]oxadiazol-3-yl)-phenyl]-3-fluoro-pyridin-2-yl}-ethylcarbamoyl)-oxetan-3-yl]-amide], the IC50 on Bradykinin-1 receptor [1] came to 0.4 nM. Besides, on Bradykinin-1 receptor [2], the Ki came out at 2.4 nM.

For `COc1cc(C(=O)NC2(C(=O)N[C@H](C)c3ccc(-c4cc(Cl)cc(Cl)c4OCC(F)F)cc3F)COC2)on1` [Example 37, 3-Methoxy-isoxazole-5-carboxylic acid (3-{(R)-1-[3′,5′-dichloro-2′-(2,2-difluoro-ethoxy)-3-fluoro-biphenyl-4-yl]-ethylcarbamoyl}-oxetan-3-yl)-amide], the IC50 at Bradykinin-1 receptor [1] was 0.4 nM. In addition, on Bradykinin-1 receptor [2], the Ki turned out to be 3.5 nM.

Source of the values: patent US8912221B2, “Biaryl amide derivatives” (Hoffmann-La Roche Inc., priority 2010, dated 2014).
